# Results published in PubChem BioAssay (NCI).
#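 48-hour exposure; five concentrations; linearly interpolated endpoints. Definition used: TGI = concentration required for complete inhibition of growth.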
# Key:
# Experiment in all cases: inhibition of tumour cell growth, NCI panel, 48 h
# OVCAR-3 ovarian = system: OVCAR-3 ovarian
# DMS 273 small cell lung = system: DMS 273 small cell lung
# TK-10 renal = system: TK-10 renal
# DU-145 prostate = system: DU-145 prostate
# SR leukemia = system: SR leukemia
# LOX IMVI melanoma = system: LOX IMVI melanoma
# DMS 114 small cell lung = system: DMS 114 small cell lung
# U251 CNS = system: U251 CNS
# HCT-15 colon = system: HCT-15 colon
# T-47D breast = system: T-47D breast
Structure (SMILES),TGI (OVCAR-3 ovarian) [µM],TGI (DMS 273 small cell lung) [µM],TGI (TK-10 renal) [µM],TGI (DU-145 prostate) [µM],TGI (SR leukemia) [µM],TGI (LOX IMVI melanoma) [µM],TGI (DMS 114 small cell lung) [µM],TGI (U251 CNS) [µM],TGI (HCT-15 colon) [µM],TGI (T-47D breast) [µM]
OCC(O)C(O)C(O)C1SC(c2ccccc2)=NN1c1ccccc1 (stereo not given),> 87.6,> 100,> 95.7,> 100,> 100,> 100,> 100,> 100,> 100,> 70.3
S=c1nc(Oc2ccc(Cl)c(Cl)c2)[nH]c(=S)[nH]1,> 100,50,> 100,> 100,> 100,37.8,48.2,99.4,> 100,59.6
c1nc2cscc2c2cscc12,> 100,> 100,> 100,,> 100,> 100,> 100,> 100,> 100,
Clc1ccc(-n2nnc(C3=NCCCN3)c2-c2ccccc2)cc1,> 100,> 100,> 100,,> 100,> 100,> 100,> 100,> 100,
Cn1nc(-c2ccccc2)c(N=[N+]=[N-])cc1=O,> 100,> 100,> 100,,> 100,> 100,> 100,> 100,> 100,
S=c1[nH]c(=S)c2sc(=S)n(-c3ccccc3)c2[nH]1,> 100,> 100,> 100,,> 100,> 100,> 100,> 100,> 100,
CC(=O)OCSc1ncnc2c1ncn2CN1CCOCC1,> 100,> 100,> 100,,> 100,76.6,> 100,> 100,> 100,
